Laboratory results: the supplement of paper PMC10307832

What was measured:
Test in all cases: relative viability (nuclei count vs DMSO), 5 days (fraction); higher = more cells survive
Alisertib + Vorinostat = compound: COc1cc(Nc2ncc3c(n2)-c2ccc(Cl)cc2C(c2c(F)cccc2OC)=NC3)ccc1C(=O)O [Alisertib] + O=C(CCCCCCC(=O)Nc1ccccc1)NO [Vorinostat] (partner 1 µM)
In short: (§1)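 Each reported value is a median over duplicate plates. It expresses relative viability: treated-well nuclei count divided by vehicle-well nuclei count. Lung cancer cell lines in 1536-well plates were dosed by pin tool a day after seeding, alone with one drug or with a fixed anchor-drug dose plus five library-drug doses (not always all listed) in √10 steps, and nuclei were counted after 5 days.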

Alisertib + Dasatinib = compound: COc1cc(Nc2ncc3c(n2)-c2ccc(Cl)cc2C(c2c(F)cccc2OC)=NC3)ccc1C(=O)O [Alisertib] + Cc1nc(Nc2ncc(C(=O)Nc3c(C)cccc3Cl)s2)cc(N2CCN(CCO)CC2)n1 [Dasatinib] (partner 0.075 µM)
In short: as §1

Alisertib + Pictilisib = compound: COc1cc(Nc2ncc3c(n2)-c2ccc(Cl)cc2C(c2c(F)cccc2OC)=NC3)ccc1C(=O)O [Alisertib] + CS(=O)(=O)N1CCN(Cc2cc3nc(-c4cccc5[nH]ncc45)nc(N4CCOCC4)c3s2)CC1 [Pictilisib] (partner 1 µM)
In short: as §1

Alisertib + Crizotinib = compound: COc1cc(Nc2ncc3c(n2)-c2ccc(Cl)cc2C(c2c(F)cccc2OC)=NC3)ccc1C(=O)O [Alisertib] + C[C@@H](Oc1cc(-c2cnn(C3CCNCC3)c2)cnc1N)c1c(Cl)ccc(F)c1Cl [Crizotinib] (partner 1 µM)
In short: as §1

Cell Line | relative viability (Alisertib + Vorinostat; first compound 0.005 µM) | relative viability (Alisertib + Vorinostat; first compound 0.01581 µM) | relative viability (Alisertib + Vorinostat; first compound 0.05 µM) | relative viability (Alisertib + Vorinostat; first compound 0.1581 µM) | relative viability (Alisertib + Vorinostat; first compound 0.5 µM) | relative viability (Alisertib + Dasatinib; first compound 0.005 µM) | relative viability (Alisertib + Dasatinib; first compound 0.01581 µM) | relative viability (Alisertib + Dasatinib; first compound 0.05 µM) | relative viability (Alisertib + Dasatinib; first compound 0.1581 µM) | relative viability (Alisertib + Dasatinib; first compound 0.5 µM) | relative viability (Alisertib + Pictilisib; first compound 0.005 µM) | relative viability (Alisertib + Pictilisib; first compound 0.01581 µM) | relative viability (Alisertib + Pictilisib; first compound 0.05 µM) | relative viability (Alisertib + Pictilisib; first compound 0.1581 µM) | relative viability (Alisertib + Pictilisib; first compound 0.5 µM) | relative viability (Alisertib + Crizotinib; first compound 0.005 µM) | relative viability (Alisertib + Crizotinib; first compound 0.01581 µM) | relative viability (Alisertib + Crizotinib; first compound 0.05 µM) | relative viability (Alisertib + Crizotinib; first compound 0.1581 µM) | relative viability (Alisertib + Crizotinib; first compound 0.5 µM)
NCI-H1651 | 0.517 | 0.461 | 0.325 | 0.118 | 0.135 | 0.357 | 0.293 | 0.204 | 0.151 | 0.163 | 0.51 | 0.429 | 0.289 | 0.161 | 0.121 | 0.898 | 0.807 | 0.41 | 0.204 | 0.256
NCI-H1666 | 1.01 | 0.995 | 0.846 | 0.617 | 0.555 | 0.693 | 0.695 | 0.527 | 0.336 | 0.323 | 0.389 | 0.355 | 0.227 | 0.21 | 0.214 | 0.934 | 0.729 | 0.474 | 0.349 | 0.363
NCI-H1734 | 0.604 | 0.519 | 0.302 | 0.221 | 0.189 | 0.449 | 0.358 | 0.291 | 0.181 | 0.151 | 0.427 | 0.4 | 0.283 | 0.226 | 0.17 | 0.669 | 0.523 | 0.357 | 0.227 | 0.155
NCI-H1755 | 0.768 | 0.776 | 0.433 | 0.386 | 0.329 | 0.382 | 0.467 | 0.356 | 0.221 | 0.0862 | 0.41 | 0.347 | 0.271 | 0.227 | 0.184 | 0.853 | 0.73 | 0.415 | 0.366 | 0.294
NCI-H1915 | 0.496 | 0.473 | 0.374 | 0.206 | 0.161 | 0.297 | 0.299 | 0.295 | 0.148 | 0.14 | 0.732 | 0.675 | 0.45 | 0.301 | 0.174 | 0.777 | 0.721 | 0.307 | 0.317 | 0.192
NCI-H1944 | 0.573 | 0.52 | 0.339 | 0.183 | 0.188 | 0.196 | 0.217 | 0.218 | 0.113 | 0.113 | 0.327 | 0.35 | 0.351 | 0.21 | 0.205 | 1.05 | 1.04 | 0.504 | 0.386 | 0.222
NCI-H1975 | 0.657 | 0.688 | 0.284 | 0.214 | 0.201 | 0.298 | 0.333 | 0.286 | 0.153 | 0.109 | 0.26 | 0.348 | 0.237 | 0.151 | 0.163 | 0.945 | 0.728 | 0.301 | 0.27 | 0.193
NCI-H1993 | 0.63 | 0.436 | 0.395 | 0.372 | 0.339 | 0.538 | 0.644 | 0.474 | 0.386 | 0.433 | 0.895 | 0.785 | 0.67 | 0.568 | 0.778 | 0.564 | 0.744 | 0.6 | 0.573 | 0.527
NCI-H2009 | 0.684 | 0.699 | 0.234 | 0.204 | 0.134 | 0.259 | 0.292 | 0.211 | 0.141 | 0.129 | 0.787 | 0.787 | 0.387 | 0.185 | 0.139 | 0.927 | 0.916 | 0.453 | 0.238 | 0.175
NCI-H2023 | 0.565 | 0.31 | 0.215 | 0.12 | 0.0981 | 0.561 | 0.492 | 0.35 | 0.167 | 0.0881 | 0.193 | 0.194 | 0.191 | 0.128 | 0.0717 | 0.721 | 0.64 | 0.345 | 0.142 | 0.112
NCI-H2085 | 0.73 | 0.771 | 0.431 | 0.441 | 0.448 | 0.233 | 0.203 | 0.207 | 0.184 | 0.171 | 0.463 | 0.435 | 0.46 | 0.248 | 0.248 | 0.757 | 0.693 | 0.33 | 0.391 | 0.388
NCI-H2087 | 0.758 | 0.667 | 0.173 | 0.106 | 0.133 | 0.776 | 0.628 | 0.137 | 0.113 | 0.123 | 0.791 | 0.791 | 0.247 | 0.166 | 0.191 | 0.893 | 0.609 | 0.176 | 0.225 | 0.209
NCI-H2126 | 0.682 | 0.802 | 0.366 | 0.207 | 0.198 | 0.55 | 0.553 | 0.48 | 0.231 | 0.215 | 0.452 | 0.502 | 0.367 | 0.28 | 0.226 | 0.96 | 0.945 | 0.486 | 0.365 | 0.311
NCI-H2170 | 0.766 | 0.782 | 0.318 | 0.2 | 0.164 | 0.443 | 0.561 | 0.403 | 0.225 | 0.167 | 0.276 | 0.303 | 0.282 | 0.19 | 0.192 | 1.17 | 1.03 | 0.438 | 0.325 | 0.225
NCI-H2228 | 0.544 | 0.671 | 0.373 | 0.0949 | 0.104 | 0.414 | 0.416 | 0.248 | 0.0768 | 0.1 | 0.362 | 0.419 | 0.228 | 0.119 | 0.138 | 0.686 | 0.406 | 0.301 | 0.168 | 0.188
NCI-H2347 | 0.522 | 0.569 | 0.518 | 0.407 | 0.343 | 0.263 | 0.339 | 0.275 | 0.268 | 0.222 | 0.534 | 0.431 | 0.41 | 0.376 | 0.429 | 0.783 | 0.526 | 0.61 | 0.454 | 0.468
